Results as given in PMC10421376, “Simultaneous Determination of Five Iridoids of Picrorhiza scrophulariiflora in Rat Plasma Using UHPLC-ESI-MS/MS” (Molecules, 2023).
Read-outs that look alike come from different tables or passages of the source.

Tests used:
[1] = test system: CXCR4; set-up: method as in PMID 32016931; details: breast cancer cells; cited from earlier work
[2] = test system: hyaluronidase; details: cited from earlier work
[3] = Pharmacokinetics of five iridoids in rat plasma after oral administration of PS extract (UHPLC-ESI-MS/MS); assay type: in vivo, SD (Sprague Dawley) rats
Protocol: Six adult male SD (Sprague Dawley) rats (220–250 g) were purchased from the Animal Experiment Center of Heilongjiang University of Chinese Medicine. The Animal Ethics Committee of Harbin Medical University approved the experimental protocol, which conformed to the principles for the Care and Use of Laboratory Animals. The experimental animals were fed under the following conditions: room temperature (20–25 °C), relative humidity (40–60%), 12 h of alternating day and night lighting, 12 h of fasting before the experiment, and free access to water. We calculated the dosage of SD rats using the standardized formula for body surface area (BSA). According to the Chinese Pharmacopoeia, the dosage of PS raw medicine for human use is 10 g. The dosage for rats is 0.9 g/kg.
The dried PS powder weighed 200 g and was extracted with eight times the amount of 75% ethanol at reflux three times for 2 h each time. The extracts were combined, filtered, distilled under reduced pressure until the alcoholic taste disappeared, and lyophilized with water. In our previous laboratory experiments, we used HPLC to determine the content of five analytes, namely Picroside-I (15.68 mg/g), Picroside-II (103.64 mg/g), Picroside-III (64.08 mg/g), minecoside (2.02 mg/g), and sweroside (12.28 mg/g). After freeze-drying, we dissolved the solid in a 5% sodium carboxymethyl cellulose solution and prepared a medicinal extract solution with a concentration of 0.3 g/mL.
A dose of 1 g/kg of body weight was administered to rats according to the pharmacopoeia and previous content results for the five analytes. Rat tail vein blood samples were collected in heparinized tubes before and 0.167, 0.333, 0.5, 0.75, 1, 2, 4, 6, 8, and 12 h after administration and centrifuged at 3500 rpm for 10 min. We obtained 100 µL of the upper layer of plasma and stored it at −20 °C for measurement.
The plasma samples were treated according to the method described in Section 3.3. The plasma samples were determined according to the chromatographic conditions described in Section 3.4 and chromatograms were recorded. The measured peak area ratios of the substances being measured and the IS were substituted into the accompanying standard curves on the same day. We also calculated the blood concentrations of Picroside-I (15.68 mg/g), Picroside-II (103.64 mg/g), Picroside-III (64.08 mg/g), minecoside (2.02 mg/g), and sweroside (12.28 mg/g), respectively. We determined the QC samples at the same time, allowing a maximum of two different concentrations of QC samples to exceed the theoretical value of ±15% of the RE% value.
The peak areas of Picroside-I, Picroside-II, Picroside-III, minecoside, sweroside, and IS in each sample were recorded. We calculated and substituted their ratios into the standard curve equation to obtain corresponding concentrations for the five substances being measured in the plasma of SD rats. The blood concentration data of each rat were processed separately to calculate the relevant pharmacokinetic parameters, and the mean and standard deviation of the parameters were further calculated. We calculated and plotted pharmacokinetic parameters including concentration–time curves (AUC0–t, AUC0–∞), average residence time (MRT), maximum plasma concentration (Cmax), time to reach the maximum concentration (Tmax), and half-time (t1/2) using pharmacokinetic software (DAS 2.0) with a non-atrial chamber model for blood concentration–time curves. All parameters were expressed as mean ± SD.

[4] = set-up: method as in PMID 27498779; details: mice, bile stasis-induced liver injury; cited from earlier work
[5] = test system: H9c2; details: cardiac cell line H9c2; cited from earlier work
[6] = Stability of the analytes in rat plasma QC samples under storage and processing conditions; assay type: in vitro ADME; details: n = 6; for Short-Term Stability RE: room temperature 4 h; for Freeze-Thaw RE: three freeze-thaw cycles −20 °C/room temperature; for Long-Term Stability RE: −20 °C two weeks
Protocol: Stability refers to the chemical stability of the sample being tested in a given medium under certain external conditions. We obtained 100 µL of rat blank plasma and prepared low, medium, and high concentrations of the QC sample standard solutions, Picroside-I, Picroside-II, Picroside-III, minecoside, and sweroside, according to the method described in Section 3.3. As simulated biological samples, the following conditions were investigated: (1) Short-term stability (QC samples were left at room temperature for 4 h, which exceeded the sample preparation time); (2) long-term stability (QC samples were left at −20 °C for two weeks); (3) freeze-thaw stability (three freeze-thaw cycles at −20 °C/room temperature) and post-preparation stability (QC samples were left in a 4 °C auto sampling chamber for 24 h).

[7] = male, Sprague-Dawley, rat, in vivo, po, 1 g/kg
[8] = rat plasma, oral PS extract 1 g/kg, n = 6, mean ± SD

SMILES	AUC(0-inf) [3, 7]	AUC(0-t) [3, 7]	Cl [3, 7]	Cmax [3, 7]	MRT last [3, 7]	Tmax [3, 7]	Vd [3, 7]	half-life [3, 7]	Short-Term Stability RE ([6]; high QC)	Freeze-Thaw RE ([6]; high QC)	Long-Term Stability RE ([6]; high QC)	Short-Term Stability RE ([6]; low QC)	Freeze-Thaw RE ([6]; low QC)	Long-Term Stability RE ([6]; low QC)	Short-Term Stability RE ([6]; medium QC)	Freeze-Thaw RE ([6]; medium QC)	Long-Term Stability RE ([6]; medium QC)	also measured
COc1ccc(/C=C/C(=O)O[C@H]2[C@@H]3C=CO[C@@H](O[C@@H]4O[C@H](CO)[C@@H](O)[C@H](O)[C@H]4O)[C@@H]3[C@@]3(CO)O[C@@H]23)cc1O [Minecoside, minecoside]	93.5 ± 22.6 ng·h/mL	78.9 ± 10.2 ng·h/mL	119.1 ± 39.7 mL/min/kg	21.1 ± 7.8 ng/mL	4.1 ± 0.7 h	1 ± 0.2 h	19.26 ± 4.77 L/kg	5 ± 2.3 h										Effect on CXCR4 expression [1]: inhibits the expression of CXCR4; Hyaluronidase inhibitory activity [2]: hyaluronidase inhibitory activity
C=C[C@H]1[C@H](O[C@@H]2O[C@H](CO)[C@@H](O)[C@H](O)[C@H]2O)OC=C2C(=O)OCC[C@H]21 [Sweroside, sweroside]																		Effect on pro-inflammatory responses and bile acid levels [4]: improves pro-inflammatory responses and bile acid levels; Effect on aconitine toxicity to myoblasts [5]: reduce aconitine’s toxicity; AUC(0-t) ([3]; male, Sprague-Dawley, in vivo, rat plasma, oral PS extract 1 g/kg, n = 6, mean ± SD, read-out: AUC0–t): 261 ± 65.3 ng·h/mL; AUC(0-inf) ([3]; male, Sprague-Dawley, in vivo, rat plasma, oral PS extract 1 g/kg, n = 6, mean ± SD, read-out: AUC0–∞): 268 ± 70.8 ng·h/mL; Cmax ([3]; male, Sprague-Dawley, in vivo, rat plasma, oral PS extract 1 g/kg, n = 6, mean ± SD, read-out: Cmax): 63.7 ± 17.6 ng/mL; MRT last ([3]; male, Sprague-Dawley, in vivo, rat plasma, oral PS extract 1 g/kg, n = 6, mean ± SD, read-out: MRT0–t): 3.9 ± 0.3 h; Tmax ([3]; male, Sprague-Dawley, in vivo, rat plasma, oral PS extract 1 g/kg, n = 6, mean ± SD, read-out: Tmax): 2.1 ± 0.1 h; half-life ([3]; male, Sprague-Dawley, in vivo, rat plasma, oral PS extract 1 g/kg, n = 6, mean ± SD, read-out: t1/2 (converted)): 1.2 ± 0.3 h; Cl [3, 8]: 2015 ± 615.8 mL/min/kg; Vd [3, 8]: 785.1 ± 130.6 L/kg
COc1cc(C(=O)O[C@H]2[C@@H]3C=CO[C@@H](O[C@@H]4O[C@H](CO)[C@@H](O)[C@H](O)[C@H]4O)[C@@H]3[C@@]3(CO)O[C@@H]23)ccc1O [Picroside-II]	611 ± 246 ng·h/mL	604 ± 239 ng·h/mL	2873.3 ± 999.3 mL/min/kg	336 ± 92.3 ng/mL	2.3 ± 0.5 h	1.1 ± 0.1 h	796 ± 503.5 L/kg	2.3 ± 1.5 h	4.47%	−1.47%	−2.19%	−4.99%	7.08%	8.69%	8.53%	−7.21%	1.37%	AUC(0-t) ([3]; male, Sprague-Dawley, rat, in vivo, po): 604 ± 239 ng·h/mL
O=C(/C=C/c1ccccc1)OC[C@H]1O[C@@H](O[C@@H]2OC=C[C@H]3[C@H](O)[C@@H]4O[C@]4(CO)[C@@H]23)[C@H](O)[C@@H](O)[C@@H]1O [Picroside-I]	382 ± 29.4 ng·h/mL	361 ± 25.6 ng·h/mL	607.2 ± 290.6 mL/min/kg	114 ± 16.1 ng/mL	3.6 ± 0.2 h	1.1 ± 0.2 h	186.7 ± 17.436 L/kg	2.4 ± 0.3 h	6.58%	−1.94%	3.59%	8.93%	6.43%	5.60%	3.83%	−2.74%	−5.69%	
